We go through twelve molecules from PMC9822940, “Antiplasmodial activity, structure–activity relationship and studies on the action of novel benzimidazole derivatives” (Scientific Reports, 2023).

Like-named read-outs stand apart in the source and are kept apart here.

The subject of data set [1] is P. falciparum HB3 strain. Nature of the data set: Antiplasmodial activity against P. falciparum HB3 strain in culture. It is filed as cell-based, Plasmodium falciparum. As to conditions: for SI (selectivity index): Vero CC50 versus HB3 IC50. As to the method:
(§1) In vitro activity of BZ. All BZ derivatives were tested at 10 μM against the HB3 strain of Pf, and for those compounds with a percentage of growth inhibition (% GI) higher than 50%, the IC50 values were determined. In addition, their cytotoxicity on epithelial Vero cell cultures was evaluated to calculate their selectivity indexes (SI), Table 1. An index of 10 or above is expected for a lead compound.
(§2) The chloroquine-sensitive […] and chloroquine-resistance 7G8 strain […] of P. falciparum were used throughout. Infected erythrocytes were kept in culture using the protocol established by Haynes et al.[44], basically utilizing human O^+ erythrocytes kept in an RPMI medium supplemented with glutamine and 10% human serum incubated in an atmosphere of 90% N2, 5% O2 and 5% CO2.

The subject of data set [2] is Vero cells. As to the kind of experiment: Cytotoxicity on epithelial Vero cell cultures. It is filed as cell-based. As to conditions: Vero cells. As to the method:
as §1

For data set [3], the system named is 7G8 P. falciparum parasites. Nature of the data set: Antiplasmodial activity against chloroquine-resistant 7G8 P. falciparum. It is filed as cell-based, Plasmodium falciparum. As to conditions: for IC50: Plasmodium falciparum.
Excerpt: The mechanism used by Pf to prevent intoxication with free heme once hemoglobin is degraded is to form hemozoin crystals that capture heme. Mefloquine and other common antimalarials interfere with this pathway, resulting in the death of the parasite.
as §2

Data set [4] in a line: Cytotoxicity on epithelial Vero cell cultures. Type of data set: cell-based. As to conditions: African green monkey, epithelial Vero cells. As to the method:
as §1

Where [5] appears, read: HB3 strain (chloroquine-sensitive), read-out: IC50.
[6] abbreviates: Plasmodium falciparum, HB3 strain (chloroquine-sensitive), read-out: IC50.
The mark [7] stands for this setting: Plasmodium falciparum, at 10 μM, HB3 strain, read-out: GI (growth inhibition percentage).

In general, IC50 refers to the midpoint of a concentration-inhibition curve. Usually CC50 stands for the concentration that lowers cell viability or growth by half. Read a low CC50 as harm at low concentration. Regarding `CCCCCCCCC(NC(=O)OC(C)(C)C)C(=O)Nc1ccc2[nH]c(NC(=O)c3ccccn3)nc2c1` (stereo not drawn) [BZ 31], the IC50 in data set [1] (setting [5]) was 8.5 µM. In data set [2], this molecule displayed a CC50 of 26.8 µM.

On to `CCCCc1ccc(C(=O)Nc2nc3cc(Cl)ccc3[nH]2)nc1` [BZ 17], for which the concentration for half-maximal inhibition (IC50) in data set [1] (setting [5]) stood at 3.5 µM. Further, the “GI (growth inhibition percentage)” value in data set [1] (at 10 μM, HB3 strain) was determined as 89.7%. In data set [2], this molecule had a CC50 of 3.4 µM.

Regarding `CCCCCCCCC(N)C(=O)Nc1ccc2[nH]c(NC(=O)c3ccccn3)nc2c1` (stereo not drawn) [BZ 32], in data set [1] (setting [5]), the IC50 stood at 6.8 µM. This molecule also returned a CC50 in data set [2] of 16.4 µM.

Turning to `O=C(Nc1nc2cc([N+](=O)[O-])ccc2[nH]1)c1ccccn1` [BZ 29], the IC50 in data set [1] (setting [5]) stood at 5.1 µM. Also, the “GI (growth inhibition percentage)” value in data set [1] (at 10 μM, HB3 strain) was 96.0%. In data set [2], this molecule yielded a CC50 of 13.9 µM.

Take `Cc1ccc2[nH]c(NC(=O)c3ccc4ccccc4n3)nc2c1` [BZ 9]: in data set [1] (setting [5]), the IC50 amounted to 14.1 µM. Moreover, the “GI (growth inhibition percentage)” value in data set [1] (at 10 μM, HB3 strain) is 73.1%. Besides, the midpoint of cytotoxicity in data set [2], the CC50, lay at 63 µM.

Turning to `Cc1cc2nc(NC(=O)c3ccc(-c4ccccc4)cn3)[nH]c2cc1C` [BZ 35], the IC50 in data set [1] (setting [5]) amounted to 7.3 µM. Further, the “GI (growth inhibition percentage)” value in data set [1] (at 10 μM, HB3 strain) amounted to 64.7%. In addition, in data set [2], half-maximal cytotoxicity (CC50) was put at 9.7 µM.

Take `Cc1ccc2[nH]c(NC(=O)c3ccc(-c4ccccc4)cn3)nc2c1` [BZ 7]: the IC50 in data set [1] (setting [5]) was determined as 7.8 µM. Also, the “GI (growth inhibition percentage)” value in data set [1] (at 10 μM, HB3 strain) was found to be 57.5%. In data set [2], this molecule yielded a CC50 of 19.5 µM.

For orientation: inhibition means the percentage by which the read-out fell short of the control. As to `CCN(CC)CCCC(C)Nc1ccnc2cc(Cl)ccc12` (stereo not drawn) [Chloroquine, reference compound], the IC50 in data set [3] (7G8, read-out: 7G8 Pf IC50) came out at 0.23 µM; in data set [1] (Plasmodium falciparum, HB3), 0.028 µM. In addition, the inhibition at 10 µM in data set [1] (Plasmodium falciparum, HB3, read-out: GI (growth inhibition percentage)) is 100%.

Take `COc1ccc2[nH]c(NC(=O)c3ccc(-c4ccccc4)cn3)nc2c1` [BZ 28]: the IC50 in data set [1] (setting [5]) was 4.4 µM. Moreover, the “GI (growth inhibition percentage)” value in data set [1] (at 10 μM, HB3 strain) is 72.7%. Also, the CC50 in data set [2] was found to be 14.6 µM.

Consider `CCCCc1ccc(C(=O)Nc2nc3cc(C)c(C)cc3[nH]2)nc1` [BZ 34], for which the IC50 in data set [1] (setting [5]) was determined as 3.4 µM. In addition, the “GI (growth inhibition percentage)” value in data set [1] (at 10 μM, HB3 strain) was found to be 74.2%. For the same molecule, half-maximal cytotoxicity in data set [2] (CC50) was put at 3.2 µM.

By melting point is commonly meant the temperature of the solid-liquid transition. In turn, `COc1ccnc(C(=O)Nc2nc3cc(Cl)ccc3[nH]2)c1` [BZ 15, N-(5-Chloro-1H-benzimidazol-2-yl)-4-methoxypicolinamide] registered a melting point of 245 °C. Further, in data set [1] (setting [6]), the IC50 came to 1.5 µM. Moreover, the inhibition at 10 µM in data set [1] (setting [7]) was found to be 89.8%. Besides, in data set [1], the “SI (selectivity index)” value was 1.4. Further, the CC50 in data set [4] is 2 µM.

Turning to `O=C(Nc1nc2cc(Cl)ccc2[nH]1)c1ccccn1` [BZ 12, N-(5-chloro-1H-benzimidazol-2-yl)picolinamide], the IC50 in data set [3] (7G8 strain (chloroquine-resistant), read-out: 7G8 Pf IC50) amounted to 3.6 µM; in data set [1] (setting [6]) it was 1.8 µM. Also, the “SI (selectivity index)” value in data set [3] (Vero CC50 versus 7G8 IC50) is recorded as 4.2; in data set [1] it was 8.7. In addition, in data set [1] (setting [7]), the inhibition at 10 µM is 91.4%. Half-maximal cytotoxicity in data set [4] (CC50) was put at 15.4 µM.
